The text below walks through data of patent publication US20250388604A1, “Compounds and Their Use as PDE4 Activators” (Mironid Limited, priority 2022, published 2025).

The structures appear in SMILES notation.

The test system of the first test is m-IMCD3 cells. Nature of the test: Inhibition of PGE2-stimulated in vitro cyst formation in m-IMCD3 cells. It is filed as cell-based, mouse. The following applies: 3 μM; mean cyst area, 100% for (DMSO + PGE2) and 0% for DMSO control; 6 days of culture. As to the method: HEK 293 and MDCK cells (Public Health England, Cell Culture Collections) were maintained in Dulbecco's Modified Eagle's Medium (DMEM) supplemented with 10% (v/v) fetal bovine serum (FBS) (Seralab), 2 mM L-glutamine and 100 U/mL penicillin streptomycin cocktail (ThermoFisher); termed complete media. Clonal HEK 293 cell lines were maintained in complete media supplemented with 0.6 mg/ml G418 (Enzo Life Sciences). Mouse inner medullary collecting duct (m-IMCD3) cells [American Type Culture Collection (ATCC)] were maintained in media consisting of DMEM/Hams F-12 50/50 Mix (DMEM F12; Corning) supplemented with penicillin streptomycin cocktail (100 U/mL) and FBS (10% v/v) (DMEM F12-10% FBS).
The mouse Inner Medullary Collecting Duct cell line (m-IMCD3) spontaneously forms cystic spheroids in 3D culture with a Type 1 collagen/Matrigel extracellular matrix. This process can be stimulated with agents which raise intracellular cAMP and is used as an in vitro model for the formation of cystic structures in the kidneys of patients with ADPKD.
Rat Collagen I (Fisher Scientific) is prepared on ice by neutralising with 1M NaOH and diluting with a 2× volume of DMEM/F12+10% FBS. This is mixed 1:1.1 with ice cold Matrigel (Corning) for coating plates (coating mix), and 1:0.93 with Matrigel for cell plating (plating mix).
The assay is conducted in the wells of a 96-well plate culture dish using a total volume of 130 μL of collagen/Matrigel/DMEM F12-10% FBS suspension in growth media for each matrix plug per individual well. Initially, 30 μL of collagen/Matrigel/DMEM F12-10% FBS (coating mix) is added into the well of a 96 well plate and the collagen is set to a gel by incubating at 37° C. for at least 15 minutes. A second layer of 100 μL collagen/Matrigel suspension (plating mix) containing m-IMCD3 cells (2.75×10^6 m-IMCD3 cells per 96-well plate) is layered over the coating mix and the collagen/Matrigel/cell mix again set to a gel by incubating at 37° C. Cell cultures are maintained at 37° C. in an atmosphere of 5% CO2, 95% air.
Between 18 and 24 h after plating, test compound(s) as DMSO stock solutions [0.1% (v/v) final DMSO concentration] and PGE2 (100 nM final concentration) in DMEM F12-10% FBS are added in quadruplicate wells per condition. Media, together with the test compound and PGE2 are replenished after 2 or 3 days. After 6 days of culture z stack images of the wells are captured using the Nikon Eclipse Ti2-E microscope. Nikon General Analysis software is used to measure the following parameters in each well: the mean cyst area, the number of cysts, and the total cyst area.
PDE4 long form activators inhibited in vitro cyst formation in m-IMCD3 cells. Data are shown in Table 4 as mean cyst area (%), compared to 100% for (DMSO+PGE2) and 0% for DMSO control.
With `CC(C(=O)N1CCc2nc(N3C4CCC3CNC4)sc2C1)C(C)(C)C` (single isomer, unassigned) [Example 159, 1-(2-(3,8-diazabicyclo[3.2.1]octan-8-yl)-6,7-dihydrothiazolo[5,4-c]pyridin-5(4H)-yl)-2,3,3-trimethylbutan-1-one], the “% Cyst area after incubation with 3 μM test compound” value turned out to be 0%.

The test is the same for the next values; noted with them: Mus musculus, mIMCD3, 144 h, 3 μM; mean cyst area, 100% for (DMSO + PGE2) and 0% for DMSO control; 6 days of culture; read-out: % Cyst area after incubation with 3 μM test compound.
On to `O=C(CC12CCC(CC1)C2)N1CCc2nc(N3C4CCC3CNC4)sc2C1` [Example 160, 1-(2-(3,8-diazabicyclo[3.2.1]octan-8-yl)-6,7-dihydrothiazolo[5,4-c]pyridin-5(4H)-yl)-2-(bicyclo[2.2.1]heptan-1-yl)ethan-1-one], for which the activity at 3 µM is -2%. On the same count and under the same terms, as for `CCC(C)(C)CC(=O)N1CCc2nc(N3C4CCC3CNC4)sc2C1` [Example 174, 1-(2-(3,8-diazabicyclo[3.2.1]octan-8-yl)-6,7-dihydrothiazolo[5,4-c]pyridin-5(4H)-yl)-3,3-dimethylpentan-1-one], the figure is 3%; as for `O=C(CC1CCCC1)N1CCc2nc(N3CCN4CCC[C@@H]4C3)sc2C1` [Example 272, (R)-2-cyclopentyl-1-(2-(hexahydropyrrolo[1,2-a]pyrazin-2(1H)-yl)-6,7-dihydrothiazolo[5,4-c]pyridin-5(4H)-yl)ethan-1-one], 16%; as for `COc1cc(F)ccc1C(=O)N1CCc2nc(N3C4CCC3CNC4)sc2C1` [Example 222, (2-(3,8-diazabicyclo[3.2.1]octan-8-yl)-6,7-dihydrothiazolo[5,4-c]pyridin-5(4H)-yl)(4-fluoro-2-methoxyphenyl)methanone], 4%. `CCCN1CC2CCC(C1)N2c1nc2c(s1)CN(C(=O)CC1CCCC1)CC2` [Example 292, 2-cyclopentyl-1-(2-(3-propyl-3,8-diazabicyclo[3.2.1]octan-8-yl)-6,7-dihydrothiazolo[5,4-c]pyridin-5(4H)-yl)ethan-1-one]: the activity at 3 µM came to 0%. For the compound `CC(O)(C(=O)N1CCc2nc(N3C4CCC3CNC4)sc2C1)C1CCCC1` (single isomer, unassigned) [Example 254, 1-(2-(3,8-diazabicyclo[3.2.1]octan-8-yl)-6,7-dihydrothiazolo[5,4-c]pyridin-5(4H)-yl)-2-cyclopentyl-2-hydroxypropan-1-one], the activity at 3 µM is -5%.

As for `Cc1cccc(C(=O)N2CCc3nc(N4C5CCC4CNC5)sc3C2)c1` [Example 195, (2-(3,8-diazabicyclo[3.2.1]octan-8-yl)-6,7-dihydrothiazolo[5,4-c]pyridin-5(4H)-yl)(m-tolyl)methanone], the activity at 3 µM was 1%. On the same count and under the same terms, the same measure for `COCCOc1ccccc1OCC(=O)N1CCc2nc(N3C4CCC3CNC4)sc2C1` [Example 129, 1-(2-(3,8-diazabicyclo[3.2.1]octan-8-yl)-6,7-dihydrothiazolo[5,4-c]pyridin-5(4H)-yl)-2-(2-(2-methoxyethoxy)phenoxy)ethan-1-one]: 3%; for `Cn1c(C(=O)N2CCc3nc(N4C5CCC4CNC5)sc3C2)cc2ccccc21` [Example 189, (2-(3,8-diazabicyclo[3.2.1]octan-8-yl)-6,7-dihydrothiazolo[5,4-c]pyridin-5(4H)-yl)(1-methyl-1H-indol-2-yl)methanone]: -1%. Take `O=C(C1CC12CCCC2)N1CCc2nc(N3C4CCC3CNC4)sc2C1` (stereo not shown) [Example 162, (2-(3,8-diazabicyclo[3.2.1]octan-8-yl)-6,7-dihydrothiazolo[5,4-c]pyridin-5(4H)-yl)(spiro[2.4]heptan-1-yl)methanone]: the activity at 3 µM came to 14%. Regarding `O=C(c1ccc(CC(F)(F)F)cc1)N1CCc2nc(N3C4CCC3CNC4)sc2C1` [Example 232, (2-(3,8-diazabicyclo[3.2.1]octan-8-yl)-6,7-dihydrothiazolo[5,4-c]pyridin-5(4H)-yl)(4-(2,2,2-trifluoroethyl)phenyl)methanone], the activity at 3 µM is 5%.

Take `COc1ccccc1C(=O)N1CCc2nc(N3C4CCC3CNC4)sc2C1` [Example 197, (2-(3,8-diazabicyclo[3.2.1]octan-8-yl)-6,7-dihydrothiazolo[5,4-c]pyridin-5(4H)-yl)(2-methoxyphenyl)methanone]: the activity at 3 µM stood at 4%. The same measure, in the same setting: the same measure for `O=C(c1cccc2c1OCCC2)N1CCc2nc(N3C4CCC3CNC4)sc2C1` [Example 217, (2-(3,8-diazabicyclo[3.2.1]octan-8-yl)-6,7-dihydrothiazolo[5,4-c]pyridin-5(4H)-yl)(chroman-8-yl)methanone]: -3%; for `O=C(c1ccccc1C(F)F)N1CCc2nc(N3C4CCC3CNC4)sc2C1` [Example 218, (2-(3,8-diazabicyclo[3.2.1]octan-8-yl)-6,7-dihydrothiazolo[5,4-c]pyridin-5(4H)-yl)(2-(difluoromethyl)phenyl)methanone]: 11%; for `O=C(c1cc2ccccc2o1)N1CCc2nc(N3C4CCC3CNC4)sc2C1` [Example 185, (2-(3,8-diazabicyclo[3.2.1]octan-8-yl)-6,7-dihydrothiazolo[5,4-c]pyridin-5(4H)-yl)(benzofuran-2-yl)methanone]: -2%. For `O=C(c1ccc(OC(F)(F)F)cc1)N1CCc2nc(N3C4CCC3CNC4)sc2C1` [Example 208, (2-(3,8-diazabicyclo[3.2.1]octan-8-yl)-6,7-dihydrothiazolo[5,4-c]pyridin-5(4H)-yl)(4-(trifluoromethoxy)phenyl)methanone], the activity at 3 µM was determined as 8%.

The same test, now with this note: Mus musculus, mIMCD3, 144 h, 10 μM; mean cyst area, 100% for (DMSO + PGE2) and 0% for DMSO control; 6 days of culture; read-out: % Cyst area after incubation with 10 μM test compound.
Consider `O=C(C1CCCO1)N1CCc2nc(N3C4CCC3CNC4)sc2C1` (stereo not shown) [Example 133, (2-(3,8-diazabicyclo[3.2.1]octan-8-yl)-6,7-dihydrothiazolo[5,4-c]pyridin-5(4H)-yl)(tetrahydrofuran-2-yl)methanone], for which the activity at 10 µM is 19%. On the same count and under the same terms, as for `O=C(CC1CCC(F)(F)C1)N1CCc2nc(N3C4CCC3CNC4)sc2C1` (stereo not shown) [Example 137, 1-(2-(3,8-diazabicyclo[3.2.1]octan-8-yl)-6,7-dihydrothiazolo[5,4-c]pyridin-5(4H)-yl)-2-(3,3-difluorocyclopentyl)ethan-1-one], the figure is -4%; as for `CN1CC2CCC(C1)N2c1nc2c(s1)CN(C(=O)NC1CCCC1)C2` [Example 82, N-cyclopentyl-2-(3-methyl-3,8-diazabicyclo[3.2.1]octan-8-yl)-4,6-dihydro-5H-pyrrolo[3,4-d]thiazole-5-carboxamide], 2%. Same read-out and setting: the same measure for `CC1(C)CN(C(=O)CC2CCC(F)(F)CC2)Cc2sc(N3CCNCC3)nc21` [Example 100, 2-(4,4-difluorocyclohexyl)-1-(7,7-dimethyl-2-(piperazin-1-yl)-6,7-dihydrothiazolo[5,4-c]pyridin-5(4H)-yl)ethan-1-one]: -1%; for `O=C(CC1CCC1)N1CCc2nc(N3C4CCC3CNC4)sc2C1` [Example 11, 1-(2-(3,8-diazabicyclo[3.2.1]octan-8-yl)-6,7-dihydrothiazolo[5,4-c]pyridin-5(4H)-yl)-2-cyclobutylethan-1-one]: -3%; for `O=C(NCc1ccc(F)cc1)N1CCc2nc(N3C4CCC3CNC4)sc2C1` [Example 55, 2-(3,8-diazabicyclo[3.2.1]octan-8-yl)-N-(4-fluorobenzyl)-6,7-dihydrothiazolo[5,4-c]pyridine-5(4H)-carboxamide]: 0%. Still for that read-out and setting: as for `O=C(N1CCc2nc(N3C4CCC3CNC4)sc2C1)C1(F)CCCC1` [Example 151, (2-(3,8-diazabicyclo[3.2.1]octan-8-yl)-6,7-dihydrothiazolo[5,4-c]pyridin-5(4H)-yl)(1-fluorocyclopentyl)methanone], the figure is 5%; as for `O=C(CCc1ccccc1)N1CCc2nc(N3C4CCC3CNC4)sc2C1` [Example 5, 1-(2-(3,8-diazabicyclo[3.2.1]octan-8-yl)-6,7-dihydrothiazolo[5,4-c]pyridin-5(4H)-yl)-3-phenylpropan-1-one], -5%.
